Molecular target: T1, Low molecular weight phosphotyrosine protein phosphatase (Homo sapiens, UniProt P24666)
T1 sequence (P24666 whole entry): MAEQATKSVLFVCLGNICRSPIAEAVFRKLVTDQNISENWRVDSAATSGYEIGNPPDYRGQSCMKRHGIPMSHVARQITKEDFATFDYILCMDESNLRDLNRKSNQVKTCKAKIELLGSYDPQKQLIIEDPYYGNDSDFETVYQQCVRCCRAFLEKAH
Assay: LMPTP Primary Screening Protocol
Description: A listing of materials is provided: Item, source, catalog no. […] Prepare Reagents as described in section F. Recipe. 2. Using LabCyte Echo, transfer 60 nL from 2 mM test compound source plate into assay plate Col. 5-48 (final concentration of test compounds is 20 μM). 60 nL of DMSO should be transferred to col. 1-4 for positive and negative control wells. 3. Spin plates at 1000 rpm for 1 minute in centrifuge. 4. Using the Beckman Coulter Bioraptr, add 3 μL/well of control buffer to columns 1 and 2. 5. Using the Bioraptr, add 3 μL/well of enzyme solution to col. 3-48. 6. Using the Bioraptr, add 3 μL/well of substrate solution to col. 1-48. 7. Spin plates at 1000 rpm for 1 minute in centrifuge. 8. Incubate plates in the dark at room temperature for 50 minutes. 9. Read plates on PerkinElmer Viewlux using a FI protocol.

CC(C)(C)OC(=O)C1(c2cc(NCCCC3CCCNC3)c3ccccc3n2)C=c2ccccc2=N1 (stereo unspecified) [US11220486, Compound I98]
IC50: > 5 µM

— BindingDB's records for patent US11220486 (LA JOLLA INSTITUTE OF ALLERGY & IMMUNOLOGY; SANFORD BURNHAM …, 2022)
